Values of other authors as cited in patent US6617125B2, “Compositions for enhanced catalyzed reporter deposition” (PerkinElmer Life Sciences, Inc., priority 2001, dated 2003).

Legend:
[1] = system: HRP; settings: substrate guaiacol; Whitaker and Tappel 1962
[2] = biological target: T1, HRP (Armoracia rusticana, UniProt P00433)
T1 sequence (P00433 31-338 limits assumed): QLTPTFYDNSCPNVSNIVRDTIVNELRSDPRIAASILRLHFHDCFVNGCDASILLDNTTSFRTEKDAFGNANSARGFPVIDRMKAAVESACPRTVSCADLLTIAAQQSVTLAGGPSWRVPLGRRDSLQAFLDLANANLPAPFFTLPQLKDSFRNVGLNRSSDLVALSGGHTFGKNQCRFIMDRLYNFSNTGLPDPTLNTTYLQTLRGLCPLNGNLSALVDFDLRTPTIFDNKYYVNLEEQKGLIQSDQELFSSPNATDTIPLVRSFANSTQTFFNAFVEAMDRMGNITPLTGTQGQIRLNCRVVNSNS

effect on the oxidation of 4-chloro-1-naphthol ([2]; substrate 4-chloro-1-naphthol, de Jong et al. 1985) | enhancement of the oxidation of p-phenylenediamine-pyrocatechol ([2]; substrate combination p-phenylenediamine-pyrocatechol, de Jong et al. 1985) | enhancement of the oxidation of diaminobenzidine ([2]; substrate diaminobenzidine, de Jong et al. 1985) | effect on substrates which form covalently depositable products ([2]; substrates which form covalently depositable products) | Compound | enhancement of the oxidation of guaiacol [1]
– | – | – | – | O=S(=O)([O-])[O-].[Na+].[Na+] [Na2SO4] | enhance
– | – | – | – | [Cl-].[K+] [KCl] | enhance
no effect | two | approximately four | no effect | c1c[nH]cn1 [imidazole] | –
– | – | – | – | [Cl-].[Na+] [NaCl] | enhance
